Experimental data: PMC12259270, “Sensory neuron–expressed FGF13 controls nociceptive signaling in diabetic neuropathy models” (The Journal of Clinical Investigation, 2025)
Residues, ends and D or L forms follow the SMILES beside them. *: point of attachment. Cbz = O=C(OCc1ccccc1)*; NHPh = c1ccc(N*)cc1; OtBu = CC(C)(C)O*

Test system: Na+ currents in hIPSC-derived sensory neurons (RealDRG)
Test: Whole-cell voltage clamp, hIPSC-derived sensory neurons (RealDRG) with Nav1.8 blocker A-803467
Type: cell-based, human
Conditions: for Long-term inactivation, 2nd Pulse / Long-term inactivation, 3rd Pulse / Long-term inactivation, 4th Pulse / Activation / Peak Density / Steady-State inactivation / Tau (τ): RealDRG
Procedure: Next, we conducted whole-cell patch-clamp electrophysiological recordings in hIPSC-derived sensory neurons under three conditions: unstimulated and treated with 0.07% ethanol (capsaicin vehicle), treated with capsaicin (100 nM, 10 minutes), and treated with capsaicin plus SB-366791 (10 μM), a selective TRPV1 inhibitor. Each group was exposed to either vehicle (0.01% DMSO) or PW164 (50 μM), with all recordings performed in the presence of the Nav1.8 blocker A-803467 (300 nM) ([41]). The experimental groups are color coded in Figure 2A. Capsaicin caused potentiation of INa (Figure 2A) and induced hyperpolarizing shifts in the V1/2 of activation (Figure 2B) and SSI (Figure 2C). […] Next, we investigated whether silencing FGF13 could replicate PW164’s effects and prevent additional activity of the compound. hIPSC-derived sensory neurons were transfected with a previously validated pAAV-shFGF13-GFP construct ([42]) (Supplemental Figure 8). […] Neither PW164 nor FGF13 silencing affected Na+ currents in neurons transfected with pAAV-shCTRL-GFP or pAAV-shFGF13-GFP, whether unstimulated or treated with capsaicin in the presence of ProTx II (Supplemental Figure 9 and Supplemental Table 6). Thus, PW164 selectively modulated FGF13-dependent Na^+ current sensitization via TRPV1, with FGF13 silencing mimicking and validating PW164’s effect. […]
Whole-cell patch clamp electrophysiology
HEK293-Nav1.7 cells, HEK293 stably expressing human Nav1.6 (HEK-Nav1.6), HEK293 stably expressing human Nav1.5 (HEK-Nav1.5), human hIPSC-derived sensory neurons (RealDRGTM from Anatomic Incorporated 1020F1-1M) and donor-derived DRG neurons were plated at low density on glass coverslips and processed for whole-cell patch clamp electrophysiology in voltage-clamp and/or current clamp mode. Whole-cell patch electrophysiological experiments were conducted following previously published studies (26). Current densities were obtained by dividing INa amplitude by membrane capacitance. Current –voltage relationships were generated by plotting current density as a function of the […]. Conductance (G Na) was calculated by the […]
where INa is the current amplitude at voltage Vm, and Erev is the Na+ reversal potential.
Activation curves were derived by plotting normalized GNa as a function of test potential and fitted using […]
Where GNa,Max is the maximum conductance, Va is the membrane potential of half-maximal activation, Em is the membrane voltage and k is the slope factor. For steady -state inactivation, normalized current amplitude (INa/INa,Max) at the test potential was plotted as a function of prepulse potential (Vm) and fitted using the […]
Where Vh is the potential of half-maximal inactivation, E m is the membrane voltage, and k is the slope factor.
Transient INa inactivation decay was estimated with the standard exponential equation. Inactivation time constant (tau, τ) was fitted with the following equation: […]
where I(t) is the amplitude of the current at time t and Iss is the steady-state current during a single voltage-step.
The goodness of fitting was determined by correlation coefficient (R), and the cutoff of R was set at 0.85. To observe effects on long-term inactivation (LTI), a four-step protocol was employed during which cells were subjected to four 0 mV, 20 ms depolarization pulses separated by −90 mV, 40 ms recovery intervals. To control for various cell sizes, the current densities were calculated by dividing INa peak current amplitude/membrane capacitance (Cm). To represent the fraction of channels entering into LTI, the peak INa observed during depolarization cycles 2-4 was normalized to the peak INa observed during depolarization cycle 1 (INa/INa,Cycle 1) and plotted as a function of the depolarization cycle.
The cumulative (frequency-dependent) use-dependency was determined by applying 20 pulses with a depolarization to −10 mV (50 ms duration) and 50 ms recovery intervals with a train of 20 pulses at 10 Hz from a holding potential at -70 mV. […]

[1] = + A-803467, AAV-FGF13 + PW164, no capsaicin
[2] = + A-803467, Cap + Control + PW164
[3] = + A-803467, Cap+ AAV-FGF13 PW164
[4] = + A-803467, Cap+ ShFGF13 + PW164
[5] = + A-803467, Cap- Control (pAAV-shCTRL-GFP) + PW164
[6] = + A-803467, Cap- Control + PW164
[7] = + A-803467, Cap- ShFGF13 + PW164
[8] = + Nav1.8 blocker A-803467, Cap+ - PW164
[9] = + Nav1.8 blocker A-803467, Cap+ PW164
[10] = + Nav1.8 blocker A-803467, Cap+ SB-366791 - PW164
[11] = + Nav1.8 blocker A-803467, Cap+ SB-366791 PW164
[12] = + Nav1.8 blocker A-803467, Naïve + PW164
[13] = + Nav1.8 blocker A-803467, Naïve - PW164
[14] = + A-803467, Control (pAAV-GFP) + ZL192
[15] = + A-803467, Sh (pAAV-shFGF13-GFP) + ZL192
[16] = + Nav1.8 blocker A-803467, Naive + ZL192
[17] = + Nav1.8 blocker A-803467, Naïve + ZL192

COC(=O)[C@@H](NC(=O)[C@H](CCC(=O)OC(C)(C)C)NC(=O)[C@H](CC(C)C)NC(=O)[C@@H]1CCCN1C(=O)OCc1ccccc1)C(C)C [PW164] (Cbz-PLE(OtBu)V-OMe)
effect on capsaicin-induced Na+ current phenotypes (PW164 50 μM, 30–60 minutes, capsaicin 100 nM, except LTI): reversed capsaicin-induced phenotypes
effect on Na+ currents without sensitization (PW164 50 μM, unstimulated control, or SB-366791, or ProTx II): no significant alterations
Long-term inactivation, 2nd Pulse (+ A-803467, AAV FGF13 + PW64): −68.4 ± 7.1 % maximal Na+ current
Long-term inactivation, 3rd Pulse (+ A-803467, AAV FGF13 + PW64): −61.9 ± 7.5 % maximal Na+ current
Long-term inactivation, 4th Pulse (+ A-803467, AAV FGF13 + PW64): −58.5 ± 8.3 % maximal Na+ current
Activation [1]: −24.3 ± 0.8 mV
Peak Density [1]: −114.3 ± 5.6 pA/pF
Steady-State inactivation [1]: −75.65 ± 1.6 mV
Tau (τ) [1]: 1.65 ± 0.14 ms
Activation [2]: −21.92 ± 0.87 mV
Long-term inactivation, 2nd Pulse [2]: −59.86 ± 2.37 % maximal Na+ current
Long-term inactivation, 3rd Pulse [2]: −49.84 ± 2.93 % maximal Na+ current
Long-term inactivation, 4th Pulse [2]: −46.98 ± 3.3 % maximal Na+ current
Peak Density [2]: −92.79 ± 7.96 pA/pF
Steady-State inactivation [2]: −58.11 ± 1.04 mV
Tau (τ) [2]: 1.42 ± 0.09 ms
Activation [3]: −27.8 ± 0.81 mV
Peak Density [3]: −91.7 ± 10.3 pA/pF
Steady-State inactivation [3]: −73.36 ± 1.4 mV
Tau (τ) [3]: 1.63 ± 0.22 ms
Activation (+ A-803467, Cap+ AAV-GFP PW164): −28.39 ± 0.59 mV
Peak Density (+ A-803467, Cap+ AAV-GFP PW164): −87.62 ± 9.5 pA/pF
Steady-State inactivation (+ A-803467, Cap+ AAV-GFP PW164): −75.15 ± 1.69 mV
Tau (τ) (+ A-803467, Cap+ AAV-GFP PW164): 2.0 ± 0.32 ms
Long-term inactivation, 2nd Pulse (+ A-803467, Cap+ GFP PW164): −53.56 ± 4.9 % maximal Na+ current
Long-term inactivation, 3rd Pulse (+ A-803467, Cap+ GFP PW164): −54.96 ± 3.6 % maximal Na+ current
Long-term inactivation, 4th Pulse (+ A-803467, Cap+ GFP PW164): −54.22 ± 4.3 % maximal Na+ current
Activation [4]: −32.72 ± 1.59 mV
Long-term inactivation, 2nd Pulse [4]: −74.3 ± 3.96 % maximal Na+ current
Long-term inactivation, 3rd Pulse [4]: −68.4 ± 5.4 % maximal Na+ current
Long-term inactivation, 4th Pulse [4]: −67.2 ± 5.2 % maximal Na+ current
Peak Density [4]: −76.49 ± 4.86 pA/pF
Steady-State inactivation [4]: −67.68 ± 1.53 mV
Tau (τ) [4]: 1.38 ± 0.10 ms
Long-term inactivation, 2nd Pulse (+ A-803467, Cap+ hFGF13 PW164): −55.4 ± 2.7 % maximal Na+ current
Long-term inactivation, 3rd Pulse (+ A-803467, Cap+ hFGF13 PW164): −52.0 ± 3.7 % maximal Na+ current
Long-term inactivation, 4th Pulse (+ A-803467, Cap+ hFGF13 PW164): −45.4 ± 3.1 % maximal Na+ current
Activation [5]: −25.74 ± 1.14 mV
Peak Density [5]: −111.31 ± 11.73 pA/pF
Steady-State inactivation [5]: −60.96±1.53 mV
Tau (τ) [5]: 1.18 ± 0.09 ms
Long-term inactivation, 2nd Pulse [6]: −86.72 ± 2.2 % maximal Na+ current
Long-term inactivation, 3rd Pulse [6]: −82.89 ± 3.3 % maximal Na+ current
Long-term inactivation, 4th Pulse [6]: −81.6 ± 3.6 % maximal Na+ current
Activation [7]: −29.77 ± 1.74 mV
Long-term inactivation, 2nd Pulse [7]: −82.82 ± 2.85 % maximal Na+ current
Long-term inactivation, 3rd Pulse [7]: −81.52 ± 3.86 % maximal Na+ current
Long-term inactivation, 4th Pulse [7]: −81.16 ± 4.06 % maximal Na+ current
Peak Density [7]: −96.02 ± 8.94 pA/pF
Steady-State inactivation [7]: −64.99 ± 1.30 mV
Tau (τ) [7]: 0.98 ± 0.09 ms
Activation [8]: −27.51 ± 1.22 mV
Peak Density [8]: −71.9 ± 9.4 pA/pF
Steady-State inactivation [8]: −74.71 ± 1.43 mV
Tau (τ) [8]: 1.39 ± 0.09 ms
Long-term inactivation, 2nd Pulse [9]: −45.59 ± 3.33 % maximal Na+ current
Long-term inactivation, 3rd Pulse [9]: −38.18 ± 2.61 % maximal Na+ current
Long-term inactivation, 4th Pulse [9]: −32.17 ± 4.29 % maximal Na+ current
Activation [10]: −30.7 ± 0.53 mV
Peak Density [10]: −95.2 ± 9.9 pA/pF
Steady-State inactivation [10]: −73.56 ± 1.33 mV
Tau (τ) [10]: 1.52 ± 0.11 ms
Long-term inactivation, 2nd Pulse [11]: −54.94 ± 3.35 % maximal Na+ current
Long-term inactivation, 3rd Pulse [11]: −47.15 ± 2.81 % maximal Na+ current
Long-term inactivation, 4th Pulse [11]: −45.57 ± 4.0 % maximal Na+ current
Long-term inactivation, 2nd Pulse [12]: −74.84 ± 5.46 % maximal Na+ current
Long-term inactivation, 3rd Pulse [12]: −67.02 ± 3.43 % maximal Na+ current
Long-term inactivation, 4th Pulse [12]: −65.63 ± 4.22 % maximal Na+ current
Activation [13]: −30.27 ± 0.75 mV
Peak Density [13]: −84.1 ± 5.9 pA/pF
Steady-State inactivation [13]: −75.11 ± 0.78 mV
Tau (τ) [13]: 0.98 ± 0.09 ms
effect on INa potentiation by FGF13 overexpression (pAAV-FGF13-GFP neurons, PW164 50 μM): fully attenuated

CC(=O)N[C@@H](Cc1ccccc1)C(=O)N[C@@H](CC(C)C)C(=O)N1CCC[C@H]1C(=O)N[C@@H](CCCCN)C(=O)Nc1ccccc1 [ZL192] (Ac-FLPK-NHPh)
Activation [14]: −29.64 ± 0.92 mV
Peak Density [14]: −189.79 ± 15.05 pA/pF
Steady-State inactivation [14]: −70.68 ± 1.76 mV
Tau (τ) [14]: 1.09 ± 0.05 ms
Long-term inactivation, 2nd Pulse (+ A-803467, Control + ZL192): −90.69 ± 2.00 % maximal Na+ current
Long-term inactivation, 3rd Pulse (+ A-803467, Control + ZL192): −89.18 ± 2.37 % maximal Na+ current
Long-term inactivation, 4th Pulse (+ A-803467, Control + ZL192): −87.9 ± 2.75 % maximal Na+ current
Activation [15]: −22.84 ± 1.28 mV
Peak Density [15]: −77.34 ± 6.83 pA/pF
Steady-State inactivation [15]: −61.77 ± 2.40 mV
Tau (τ) [15]: 1.23 ± 0.05 ms
Long-term inactivation, 2nd Pulse (+ A-803467, Sh + Zl192): −84.46 ± 3.81 % maximal Na+ current
Long-term inactivation, 3rd Pulse (+ A-803467, Sh + Zl192): −82.09 ± 3.89 % maximal Na+ current
Long-term inactivation, 4th Pulse (+ A-803467, Sh + Zl192): −80.59 ± 4.08 % maximal Na+ current
Activation [16]: −29.92 ± 0.79 mV
Peak Density [16]: −181.06 ± 13.74 pA/pF
Steady-State inactivation [16]: −72.03 ± 0.94 mV
Tau (τ) [16]: 1.31 ± 0.06 ms
Long-term inactivation, 2nd Pulse [17]: −90.95 ± 1.82 % maximal Na+ current
Long-term inactivation, 3rd Pulse [17]: −88.17 ± 2.02 % maximal Na+ current
Long-term inactivation, 4th Pulse [17]: −86.7 ± 1.7 % maximal Na+ current
effect on INa in naive neurons (ZL192 50 μM, no triggering stimuli): potentiated INa
